Test results: patent publication US10682427B2, “Intra-operative imaging” (BRACCO IMAGING S.P.A., priority 2014, dated 2020)

Columns and labels:
[1] = molecular target: Human Serum Albumin (HSA) (Homo sapiens, UniProt P02768); assay: In vitro binding assay towards human serum albumin (absorbance at 689 nm)
Procedure: Final solutions, containing 0.99 mM of the NIR agent and different amount of HSA, were incubated 1 h at room temperature before measurements. The absorbance of each solution was measured against a reference solution of HSA at the same concentration.

[2] = tested on: rat orthotopic prostate tumor model Mat Ly-Lu; assay: Fluorescence guided-surgery in rat prostate tumor model, visual classification validated by histology; type: in vivo, Copenhagen rats
Procedure: This example is aimed at assessing the sensitivity of the NIR RGD cyclic probe DA364 in the recognition of tumor masses using rat orthotopic prostate tumor model Mat Ly-Lu (a tumor with reduced expression of αvβ3 integrins, as illustrated below).
Intraoperative imaging was performed on a Zeiss system, a modified surgical microscope including appropriate filters for illumination and selection of signals emitted from the probe. Rat tumoral MatLyLu prostate cells were inoculated in the right ventral lobe of the prostate. Three-four days after inoculation animals were intravenously injected with a dose ranging from 5 to 20 nmol/rat of NIR fluorescent probe and imaged 24 hours after. Tumors have been then resected through fluorescent signal guide. Tissues surrounding the fluorescent area including tissues from the left prostate lobe was excised for histological comparison. All the samples were analysed through routine histological processing (Hematoxylin and eosin stain) and additional immune-labelling.
The experiment was performed on 10 Copenhagen rats (males) 11 weeks old, purchased from Harlan Laboratories Srl, S.Pietro al Natisone (UD), Italy. Rat prostate adenocarcinoma was induced in Copenhagen rats by orthotopic injection of the MatLylu tumor cells under isofluorane anesthesia. About 1 hour before tumor implantation, an analgesic (Rymadil) was administered subcutaneously (5 mg/kg) to rats. Then the lower abdomen was shaved and disinfected (Betadinen. A 12 mm incision of the abdominal wall along the linea Alba was performed 3 to 4 cm above the urinary orifice. The prostate was exposed after having pushed away the adipose tissue on each side of the animal.
A cell suspension (30 μL) containing 0.5×10^6 tumor cells was injected with a 27G needle into the right ventral lobe of the prostate. The muscular and cutaneous plan was sewed up with sterile non-resorbable thread (3-0 black silk, Distrex S.p.a.). The wound was painted with disinfectant solution Betadine®. The analgesic was also administered at least once after surgery (about 24 h after). All procedures involving the animals have been conducted according to national and international laws and policies for the Care and Use of Laboratory Animals (EEC Council Directive 86/609CEE; L.D. 116/92 and EEC Council Directive 2010/63/EU; L.D. 26/2014. Authorization n.149/2006-A issued Oct. 27, 2006 by the Italian Ministry of Health).
The tumor removal was performed using a dedicated surgical microscope (Axio Zoom v16, Carl Zeiss Beteiligungs GmbH, Jena, Germany). The microscope was equipped with a PLANAPO Z 0.5×/0.125 FWD 114 MM objective. During surgery an area of about 2.5×2.5 cm^2 was visualized. The surgical field was white-light illuminated by a cold light source (CL 9000 LED CAN (D)) when the fluorescence signal was not required, and by filtered light during the tumor removal (Illuminator: HXP 200C (D), filter set: 32 Cy 5.5 shift free (E)).
The day before surgery, corresponding to 3-4 days after tumor implantation, animals were administered with a dose of DA364 test agent ranging from 5 to 20 nmol/rat. Twenty-four hours after probes injection, animals were anaesthetized with isofluorane gas 0.5% (O2 99.5%), secured on the surgical table in the supine position and prostate tumor will be exposed.
After the removal of the prostatic capsule, the prostatic tumor was exposed to filtered light and fluorescence images were acquired to outline the primary tumor mass and the margins of the pathology (see FIG. 3, Panels A and D). The removal of the tumor mass was then carried out iteratively, by using fluorescence to guide the excision until absence of the fluorescent signal in the area surrounding tumor region (see FIG. 3, Panels B,E and C,F). Most of the fluorescent signal was confined in implantation area, i.e. the prostate right ventral lobe. […]

[3] = 5 to 20 nmol/rat i.v., surgery 24 h after, versus histology

Sequence of Human Serum Albumin (HSA) (P02768 25-609): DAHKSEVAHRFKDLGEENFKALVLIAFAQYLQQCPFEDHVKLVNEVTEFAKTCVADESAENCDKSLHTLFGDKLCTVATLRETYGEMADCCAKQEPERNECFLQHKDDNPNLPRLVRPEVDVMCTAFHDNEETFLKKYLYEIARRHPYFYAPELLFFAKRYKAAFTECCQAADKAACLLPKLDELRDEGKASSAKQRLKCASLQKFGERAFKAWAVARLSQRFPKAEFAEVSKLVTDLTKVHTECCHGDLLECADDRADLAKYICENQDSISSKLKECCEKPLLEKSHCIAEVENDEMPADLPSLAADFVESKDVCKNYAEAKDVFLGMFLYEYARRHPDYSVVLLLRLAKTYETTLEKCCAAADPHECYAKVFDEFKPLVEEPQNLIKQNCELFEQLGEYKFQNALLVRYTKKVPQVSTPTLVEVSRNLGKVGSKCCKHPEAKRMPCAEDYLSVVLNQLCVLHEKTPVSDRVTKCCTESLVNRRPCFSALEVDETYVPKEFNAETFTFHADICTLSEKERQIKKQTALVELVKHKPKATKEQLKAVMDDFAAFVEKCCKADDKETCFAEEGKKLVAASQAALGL

## CC[N+]1=C(/C=C/C=C/C=C2/N(CCCCCC(=O)NC[C@@H]3C[C@@H]4CC[C@H]5C(=O)N[C@@H](CCCNC(=N)N)C(=O)NCC(=O)N[C@@H](CC(=O)O)C(=O)N[C@H]3C(=O)N45)c3ccc4c(S(=O)(=O)O)cc(S(=O)(=O)O)cc4c3C2(C)C)C(C)(C)c2c1ccc1c(S(=O)(=O)[O-])cc(S(=O)(=O)O)cc21 [DA364]
[1]
  Kd: 34.9 µM
[1]; PBS, 1 h at room temperature
  association constant with HSA (ka): 28670 ± 1140 M⁻¹
[2]; [3]
  sensitivity of visual classification of tumor tissues: 87%
  specificity of visual classification of tumor tissues: 83%
[2]; surgery class FLUORESCENT
  number of tissue samples, histology Negative: 3
  number of tissue samples, histology Positive: 20
[2]; surgery class NON FLUORESCENT
  number of tissue samples, histology Negative: 15
  number of tissue samples, histology Positive: 3
